Ends that are not written are not given here.
How the values were obtained:
rat CNS = assay: CVGTNCY peptide-phage biodistribution, rats; type: in vivo; details: peptide-phage i.v., 1 h
Procedure: CVGTNCY (SEQ ID NO:2) peptide-phage or control phage were injected iv into mice, after one hour circulation animals were perfused with 20 ml PBS, organs were collected, weighed, and dropped to 1% NP40-LB solution. Organs were homogenized and titer of each tissue was determined. FAM-labeled peptides (2 mM of peptide in PBS) were injected intravenously and 3 hours later the animals were perfused with 20 mL of PBS. The organs were excised, snap-frozen in the vapor of liquid nitrogen, and stored at −80 °C. For confocal microscopy, the tissues were sectioned at 15 μm and stained with antibodies and DAPI.
To describe the utility of CVGTNCY (SEQ ID NO:2) peptide as a systemic CNS homing peptide, the biodistribution of CVGTNCY (SEQ ID NO:2) peptide-phage as well as peptide-functionalized AgNPs were analyzed in rodents. […] No significant difference between CVGTNCY (SEQ ID NO:2) and G7 titers was determined in the rest of the analyzed organs/tissues).

22 different cell-lines = assay: CVGTNCY peptide-phage binding on cell lines; type: cell-based, human or mouse; details: +4 °C, 1 h; over control phage G7
Procedure: 22 different cell-lines derived from human or mouse tumors or normal tissues were used in the experiments (Table 4).
To evaluate the CVGTNCY (SEQ ID NO:2) peptide-phage binding on cell lines, the CVGTNCY (SEQ ID NO:2) peptide-phage and control G7 phage were incubated on attached cells (except NCH421k cells that grow as speroids) in DMEM-0.5% BSA for 1 hour at +4 °C. Thereafter, the cells were washed four times with DMEM-0.5% BSA and phage was released in 1% NP40-LB to determine the titer of the samples.
An in vitro proximity labeling method was planned to use for the identification of the CVGTNCY (SEQ ID NO:2) peptide receptor. To accomplish receptor search, binding of CVGTNCY (SEQ ID NO:2) peptide-phage on 22 different cell-lines isolated from various tumors and normal tissues was tested.

Reelin = assay: Peptide-phage binding on ELISA plate; design: species or system human
Procedure: Reelin protein (#8546-MR-050; R&D Systems), NRP-1 b1b2 (wt and mutant) or 5% BSA was immobilized on Costar 96-Well ELISA plate (#3590, Corning Life Sciences, Tewksbury, MA, USA). The multiwell plates were coated with 20 μg/ml recombinant protein in 100 μl of PBS overnight at +4 °C, followed by blocking with 1% bovine serum albumin (BSA) in PBS overnight at +4 °C. The phage (5×10^8 pfu in 100 μl of PBS-BSA) was incubated overnight at +4 °C, followed by 6 washes with PBS containing 1% BSA and 0.1% Tween-20 (washing buffer) to remove background phages. BLT5615 OD600=0.5 containing 2 mM IPTG was used to recover the phages and determine the titer of samples.
Next, an affinity chromatography was performed to identify a receptor of the CVGTNCY (SEQ ID NO:2), and selected a receptor candidate, which is a secreted extracellular matrix protein Reelin. CVGTNCY (SEQ ID NO:2) binding to Reelin protein was tested by cell free method on ELISA plate. Recombinant human Reelin protein (Ser1221-Gln2666; 163 kDa) was used to coat the ELISA plate and the CVGTNCY (SEQ ID NO:2) peptide-phage was allowed to bind to it. After several washes, the titer of the experiment was determined to rate on the binding efficiency.
Reelin was identified from affinity chromatography proteomics data. […] The binding efficiency was evaluated based on the titer (PFU/ml) of each sample. […]

mouse brain = assay: Peptide-phage biodistribution after i.v. injection; type: in vivo
Procedure: For titering-based biodistribution studies, nucleotide sequences coding for peptides of interest were cloned into T7 phage genomic DNA to be expressed on the phage surface as C-terminal fusions to capsid protein. The cloning was performed using complementary oligonucleotides, the phage clones were amplified, and purified as described in (Põšnograjeva, et al., 2022). 5×10^9 pfu of peptide-phage clone was injected i.v. into male Balb/C mice or 5×10^10 pfu of phage was injected into female Sprague-Dawley rats (n=3). 60 min later, the animals were anesthetized and perfused with PBS. The tissues were collected, homogenized, and the amount of phage in tissue lysates was determined by titering using E. coli strain BLT5615.
A complete listing of peptides that were identified from Ion Torrent high throughput sequencing from bio-panning Round 5 is set forth in Table 1B.
The peptide-phage was injected i.v. and following 1 h circulation, the mice were perfused, brain and control organs were collected and phage titer in each tissue was determined. Insertless T7 phage was used as a negative control and a phage displaying BBB penetrating peptide Angiopep-2 (TFFYGGSRGKRNNFKTEEY; SEQ ID NO:97) was used for comparison. Cerepep phage achieved approximately 300-fold higher accumulation in mouse brain compared to control and Angiopep-2 phages (FIG. 2A; Peptide-phage accumulation in the brain. 5×10^9 pfu of phage was injected i.v. and following 1 h circulation mice were perfused with PBS. The amount of phage accumulated in the brain was determined by titering). To assess the brain distribution of […] (SEQ ID NO:9), the mouse brain was dissected to separate the olfactory bulbs, cerebellum, brain stem and the hemispheres before determining the titer in the tissue.
The brain selectivity of SRRVISRAKLAAAL (SEQ ID NO:9) phage following a systemic administration was studied in mice and rats by determining the titer of […] (SEQ ID NO:9) and control phage in multiple control tissues.

Neuro2A = assay: In vitro phage binding to cells; type: cell-based, mouse; details: 4 °C, 1 h
Procedure: (§1) To assess the binding of Cerepep phage, the cells were cultured in 24-well plates on polylysine coated glass coverslips until 80-90% confluency. The cells were incubated with Cerepep or control insertless peptide-phage at a final concentration of 5×10^7 pfu in 1 ml of DMEM+BSA (1%) at 4 °C for 1 h on a rocking platform. The wells were washed 4 times with 1 ml of DMEM+BSA (1%), the cells were lysed in 1 ml LB+NP40 and the amount of phage bound to the cells was determined by titering.
(§2) Binding of SRRVISRAKLAAAL (SEQ ID NO:9) phage to a panel of different cell lines was studied in vitro.

WT GBM = assay: In vitro phage binding to cells; type: cell-based, mouse; details: 4 °C, 1 h
Procedure: as §1, §2

Row | Substance | homing to CNS vs other organs (rat CNS) | peptide-phage binding on cell lines (22 different cell-lines) | binding to Reelin (Reelin) | homing preference (mouse brain; mouse, in vivo) | accumulation in mouse brain, fold over Angiopep-2 phage (mouse brain; peptide-phage 5×10^9 pfu i.v., 1 h, vs Angiopep-2 phage) | accumulation in mouse brain, fold over control phage (mouse brain; peptide-phage 5×10^9 pfu i.v., 1 h, vs insertless control phage) | accumulation in the brain, shorter versions of Pep1 (mouse brain; peptide-phage 5×10^9 pfu i.v., 1 h circulation) | brain selectivity (titer in brain vs control tissues) (mouse brain; peptide-phage i.v., 1 h, mice) | accumulation in brain regions and spinal cord (mouse brain; peptide-phage i.v., 1 h, olfactory bulbs, cerebellum, brain stem, hemispheres, spinal cord, compared to control phage) | binding of peptide-phage, fold over insertless phage (Neuro2A) | binding of peptide-phage, fold over insertless phage (WT GBM)
1 | CVGTNCY | homes preferentially to the CNS than to other organs | minimal binding | specific binding |  |  |  |  |  |  |  | 
2 | SRRVISRAKLAAAL [Cerepep, SRRVISRAKLAAAL] |  |  |  | homes preferentially to the eyes/brain/CNS | approximately 300 fold | approximately 300 fold | shortest peptide still achieving a high accumulation in the brain | highest accumulation in the brain and low accumulation in all other tested tissues | high accumulation in all tested brain regions as well as in the spinal cord | at least 50 fold | at least 50 fold

From patent US20260347399A1, “BRAIN PENETRATING PEPTIDES AND METHODS OF USE” (priority 2022, published 2026)
